Columns and labels:
Assay in all cases: iSPP profiling, P. falciparum lysate
Format in all cases: binding, Plasmodium falciparum
[1] = tested on: Phospholipid-transporting ATPase (W7JSF3;W7K4C4)
Procedure: (§1) P. falciparum NF54 lysates were extracted as described in ^[26^] . The parasite asynchronous culture was extracted once 3-5% parasitemia was reached. Saponin lysis was done as described in 2.2.10. Once the parasite pellet was obtained, 2.5 volumes of ice-cold lysis buffer (50 mM Tris/HCl pH 7.5 (Avantor), 5% glycerol (Sigma-Aldrich), 150 mM NaCl (Carl Roth), 1.5 mM MgCl2 (Sigma-Aldrich), 1 mM DTT (Carl Roth), 0.8% IGEPAL CA-630 (Sigma-Aldrich), 1X Halt Protease and Phosphatase Inhibitor-Cocktails EDTA-free (Thermo Fisher Scientific)) was added to the parasite pellet. The lysate solution was subjected to three cycles of flash freeze-thaw with liquid nitrogen and ddH2O at RT. The lysates were centrifuged at 20,000 g for 20 minutes at 4 °C. The soluble protein fraction (supernatant) was collected and the protein content was quantified using the BCA assay (Pierce™ BCA Protein Assay Kit, Thermo Fisher Scientific). The lysate was stored at -80 °C until further use.
(§2) The P. falciparum lysate was thawed on ice and diluted to 0.8 mg/mL. […] Subsequently, the samples were incubated at room temperature for 30 minutes using a rotating mixer. After distribution into a 96-well plate, the samples were treated with increasing concentrations of A.E.A. (v/v) ranging from 14% to 28% (14, 16, 18, 20, 22, 24, 26, and 28%). Following a 20-minute incubation at 37°C with shaking at 750 rpm, the samples were centrifuged at 4400 g for 35 minutes to remove precipitated proteins. The soluble fractions were then pooled in equal volumes into a single sample using the Bravo Automated Liquid Handling Platform. The pooled samples were subsequently prepared for LC-MS/MS analysis.
(§3) The raw LFQ-DIA intensity values of biological replicates across all conditions were normalized to the median abundance using Excel. The normalized values were then log2 transformed in Perseus (v2.0.10.0).^[58^] Missing values were imputed from a normal distribution (width 0.3, down shift 1.5), and p-values were obtained using a two-sample t-test over replicates with a permutation-based false discovery rate correction (FDR 0.05). Volcano plots were generated in RStudio using the EnhancedVolcano package (v. 1.20.0), ^[59^] plotting proteins by statistical significance (y-axis: –Log10 p-value) versus the magnitude of change (x-axis: log2 fold change of protein intensities for each compound condition relative to the vehicle control). The heatmap was generated in Perseus (v2.0.10.0). Dose-dependent curves were generated using normalized protein intensity values, expressed as a ratio to the vehicle control. Plots were created in GraphPad Prism (v8.3.0) using a nonlinear regression model.

[2] = tested on: AAA family ATPase (W7JWU4)
Procedure: as §1, §2, §3

[3] = tested on: Ubiquitin-protein ligase (W7JWT0)
Procedure: as §1, §2, §3

[4] = tested on: 60S ribosomal protein L17 (W7KA36)
Procedure: as §1, §2, §3

[5] = tested on: PI3K/PI4K catalytic domain-containing protein (W7K7J6)
Procedure: as §1, §2, §3

[6] = tested on: 40S ribosomal protein S4 (W7JT49)
Procedure: as §1, §2, §3

[7] = tested on: Uncharacterized protein (W7KIB1)
Procedure: as §1, §2, §3

[8] = tested on: 60S ribosomal protein L22 (W7K6D9)
Procedure: as §1, §2, §3

[9] = tested on: 60S ribosomal protein L4 (W7KB54)
Procedure: as §1, §2, §3

[10] = tested on: DNA primase large subunit (W7KFW7)
Procedure: as §1, §2, §3

[11] = tested on: ATP-dependent zinc metalloprotease FTSH (W7JKR1)
Procedure: as §1, §2, §3

[12] = tested on: Uncharacterized protein (W7JXC3)
Procedure: as §1, §2, §3

[13] = tested on: Eukaryotic translation initiation factor 3 subunit A (W7KD62)
Procedure: as §1, §2, §3

[14] = tested on: dolichyl-diphosphooligosaccharide--protein glycotransferase (W7K3H0)
Procedure: as §1, §2, §3

[15] = tested on: 60S ribosomal protein L18a (W7JPN9)
Procedure: as §1, §2, §3

CN1CCN(Cc2ccc(O)c(NC(=O)c3cccc(Oc4cc(C(F)(F)F)ccn4)c3)c2)CC1 [Compound 31, N-(2-hydroxy-5-((4-methylpiperazin-1-yl)methyl)phenyl)-3-((4-(trifluoromethyl)pyridin-2-yl)oxy)benzamide]
log2FC ([1]; 10 µM): 0.33
log2FC ([1]; 50 µM): 0.36
log2FC ([1]; 100 µM): 0.30
log2FC ([1]; 10^-2 µM): 0.36
log2FC ([1]; 10^-3 µM): 0.20
log2FC ([2]; 10 µM): 0.33
log2FC ([2]; 50 µM): 0.46
log2FC ([2]; 100 µM): 0.35
log2FC ([2]; 10^-2 µM): 0.29
log2FC ([2]; 10^-3 µM): 0.18
log2FC ([3]; 10 µM): 0.52
log2FC ([3]; 50 µM): 0.87
log2FC ([3]; 100 µM): 0.59
log2FC ([3]; 10^-2 µM): 0.50
log2FC ([3]; 10^-3 µM): 0.25
log2FC ([4]; 10 µM): 0.35
log2FC ([4]; 50 µM): 0.49
log2FC ([4]; 100 µM): 0.40
log2FC ([4]; 10^-2 µM): 0.30
log2FC ([4]; 10^-3 µM): 0.17
log2FC ([5]; 10 µM): 0.30
log2FC ([5]; 50 µM): 0.44
log2FC ([5]; 100 µM): 0.41
log2FC ([5]; 10^-2 µM): 0.42
log2FC ([5]; 10^-3 µM): 0.17
log2FC ([6]; 10 µM): 0.53
log2FC ([6]; 50 µM): 0.68
log2FC ([6]; 100 µM): 0.62
log2FC ([6]; 10^-2 µM): 0.39
log2FC ([6]; 10^-3 µM): 0.19
log2FC ([7]; 10 µM): 1.08
log2FC ([7]; 50 µM): 1.03
log2FC ([7]; 100 µM): 0.88
log2FC ([7]; 10^-2 µM): 1.16
log2FC ([7]; 10^-3 µM): 0.39
log2FC ([8]; 10 µM): 0.72
log2FC ([8]; 50 µM): 0.75
log2FC ([8]; 100 µM): 0.65
log2FC ([8]; 10^-2 µM): 0.61
log2FC ([8]; 10^-3 µM): 0.18
log2FC ([9]; 10 µM): 0.49
log2FC ([9]; 50 µM): 0.63
log2FC ([9]; 100 µM): 0.50
log2FC ([9]; 10^-2 µM): 0.41
log2FC ([9]; 10^-3 µM): 0.21
log2FC ([10]; 10 µM): 0.33
log2FC ([10]; 50 µM): 0.51
log2FC ([10]; 100 µM): 0.41
log2FC ([10]; 10^-2 µM): 0.50
log2FC ([10]; 10^-3 µM): 0.39
log2FC ([11]; 10 µM): 0.49
log2FC ([11]; 50 µM): 0.64
log2FC ([11]; 100 µM): 0.46
log2FC ([11]; 10^-2 µM): 0.46
log2FC ([11]; 10^-3 µM): 0.20
log2FC ([12]; 10 µM): 0.50
log2FC ([12]; 50 µM): 0.70
log2FC ([12]; 100 µM): 0.40
log2FC ([12]; 10^-2 µM): 0.36
log2FC ([12]; 10^-3 µM): 0.02
log2FC ([13]; 10 µM): 0.35
log2FC ([13]; 50 µM): 0.45
log2FC ([13]; 100 µM): 0.31
log2FC ([13]; 10^-2 µM): 0.30
log2FC ([13]; 10^-3 µM): 0.15
log2FC ([14]; 10 µM): 0.53
log2FC ([14]; 50 µM): 0.72
log2FC ([14]; 100 µM): 0.44
log2FC ([14]; 10^-2 µM): 0.59
log2FC ([15]; 10 µM): 0.72
log2FC ([15]; 50 µM): 1.09
log2FC ([15]; 100 µM): 0.81
log2FC ([15]; 10^-2 µM): 0.75
log2FC ([15]; 10^-3 µM): 0.60

Reference: PMC12668308, “A Novel Antimalarial Agent that Inhibits Protein Synthesis in Plasmodium falciparum” (Angewandte Chemie (International Ed. in English), 2025)
